Assay results as given in paper PMC7857147 (Biochemistry, 2019).

What was measured:
PhDph2 = PhDph2 (Pyrococcus horikoshii, UniProt O58832, R289A); experiment: HPLC of SAM cleavage to MTA; type: biochemical; settings: 60 uM SAM, 1 mM dithionite, pH 7.4, 65 °C, 10 min, no EF-2, anaerobic
crystal structure = molecular target: the molecule itself; experiment: crystal structure

PhDph2, sequence (O58832 whole entry R289A): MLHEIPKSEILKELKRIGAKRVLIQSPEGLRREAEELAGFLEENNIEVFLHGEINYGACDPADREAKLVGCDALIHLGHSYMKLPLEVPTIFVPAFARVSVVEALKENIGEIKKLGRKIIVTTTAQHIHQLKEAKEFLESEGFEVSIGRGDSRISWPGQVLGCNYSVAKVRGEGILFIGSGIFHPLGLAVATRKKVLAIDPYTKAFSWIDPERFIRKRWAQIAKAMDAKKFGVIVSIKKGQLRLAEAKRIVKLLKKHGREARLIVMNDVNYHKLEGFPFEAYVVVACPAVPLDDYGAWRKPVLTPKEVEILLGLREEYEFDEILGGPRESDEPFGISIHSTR

Molecule: C[S+](CC[C@H](N)C(=O)O)C[C@H]1O[C@@H](n2cnc3c(N)ncnc32)[C@H](O)[C@@H]1O (some centres unmarked) [SAM]
- HPLC of SAM cleavage to MTA (PhDph2): the R289A mutant still had SAM cleavage activity

B1: Methanobrevibacter smithii Dph2 (enzyme, UniProt A5UMY5 1-334, looked up)
chain: MSMYNMDLDKVIRKINKKGARTVGLQFPEGLKMQAVKIAKAIESQTPATVIISGDPCFGACDVSDYKMKGSVDLIVHYGHTPLPLKYEVPTLFIEAFSNIDVKKDLEKCLEKLEDYSKIALVTTTQHLHLLNEIKDYLEDNGKEVVLGSSKNTKKGQVLGCNFSSIKNLDAEVYLFIGSGNFHPLGIYLFTKSPVLALDPYNSEIRDISAFADRILRIRFARITKAREAEKWGIIVSSKEGQYRMKLAKEIKKILEDNKMEAYIIMADNINPDILLPYMELDAFVVSACPRIAIDDSQMYKKPLLTPQELEIVLNKRQWENYQLDEILFHERYK
- stoichiometry N (crystal structure): 2
